Source: patent US20130131043A1, “PYRAZOLE COMPOUNDS AS JAK INHIBITORS” (priority 2010, published 2013)
pIC50: −log10 of the molar value.

Legend:
[1] = in vivo; cited from earlier work
JAK3 = target: T1, JAK3 (Homo sapiens, UniProt P52333); assay: Kinobeads assay, JAK3 (competition binding in cell lysate, dot blot detection); conditions: mixed Molt4/Ramos lysate
T1 construct: endogenous in cells; host or cells: Molt4 (ATCC CRL-1582) and Ramos (ATCC CRL-1596) cell lysate; mixed Molt4/Ramos lysate 1:2
T1 sequence (P52333 1-1124): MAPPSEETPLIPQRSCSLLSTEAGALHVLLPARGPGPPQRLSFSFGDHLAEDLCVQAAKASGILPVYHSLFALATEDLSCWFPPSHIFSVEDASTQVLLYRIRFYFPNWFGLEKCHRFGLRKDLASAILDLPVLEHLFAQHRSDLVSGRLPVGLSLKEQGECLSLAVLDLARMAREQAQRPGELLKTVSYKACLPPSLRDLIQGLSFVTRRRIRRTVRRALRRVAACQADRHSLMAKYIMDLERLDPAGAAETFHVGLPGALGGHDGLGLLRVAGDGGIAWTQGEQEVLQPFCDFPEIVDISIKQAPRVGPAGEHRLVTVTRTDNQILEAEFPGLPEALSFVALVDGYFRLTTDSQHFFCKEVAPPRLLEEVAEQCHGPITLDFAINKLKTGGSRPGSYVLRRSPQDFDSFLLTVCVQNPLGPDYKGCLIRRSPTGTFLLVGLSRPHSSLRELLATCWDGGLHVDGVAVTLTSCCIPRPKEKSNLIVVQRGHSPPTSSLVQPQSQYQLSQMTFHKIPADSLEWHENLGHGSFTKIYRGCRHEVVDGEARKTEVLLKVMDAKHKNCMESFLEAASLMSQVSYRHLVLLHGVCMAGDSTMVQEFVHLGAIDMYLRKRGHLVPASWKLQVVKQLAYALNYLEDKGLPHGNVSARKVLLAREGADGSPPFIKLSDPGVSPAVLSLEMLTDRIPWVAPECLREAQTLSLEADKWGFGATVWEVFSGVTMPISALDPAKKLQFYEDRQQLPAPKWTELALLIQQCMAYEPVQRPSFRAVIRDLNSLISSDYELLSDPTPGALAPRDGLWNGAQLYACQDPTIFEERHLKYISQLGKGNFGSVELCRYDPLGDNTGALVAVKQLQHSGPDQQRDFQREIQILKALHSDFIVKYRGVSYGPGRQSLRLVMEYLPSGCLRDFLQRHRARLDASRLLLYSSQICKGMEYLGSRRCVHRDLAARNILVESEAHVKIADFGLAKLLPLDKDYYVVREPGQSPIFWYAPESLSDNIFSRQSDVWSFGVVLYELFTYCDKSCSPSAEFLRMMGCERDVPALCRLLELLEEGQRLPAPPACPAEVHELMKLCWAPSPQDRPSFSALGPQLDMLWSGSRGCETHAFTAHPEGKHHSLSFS
How it was run: (§1)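 Competition binding of compound against immobilized aminopyrido-pyrimidine affinity beads in mixed Molt4/Ramos lysate (1:2, 10 mg/mL protein), 3 h in cold room. Bead-bound JAK2 or JAK3 eluted and quantified by antibody dot blot with infrared detection; IC50 from 9-step 1:3 dose-response curves.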

JAK2 = target: T2, JAK2 (Homo sapiens, UniProt O60674); assay: Kinobeads assay, JAK2 (competition binding in cell lysate, dot blot detection); conditions: mixed Molt4/Ramos lysate
T2 construct: endogenous in cells; host or cells: Molt4 (ATCC CRL-1582) and Ramos (ATCC CRL-1596) cell lysate; mixed Molt4/Ramos lysate 1:2
T2 sequence (O60674 whole entry): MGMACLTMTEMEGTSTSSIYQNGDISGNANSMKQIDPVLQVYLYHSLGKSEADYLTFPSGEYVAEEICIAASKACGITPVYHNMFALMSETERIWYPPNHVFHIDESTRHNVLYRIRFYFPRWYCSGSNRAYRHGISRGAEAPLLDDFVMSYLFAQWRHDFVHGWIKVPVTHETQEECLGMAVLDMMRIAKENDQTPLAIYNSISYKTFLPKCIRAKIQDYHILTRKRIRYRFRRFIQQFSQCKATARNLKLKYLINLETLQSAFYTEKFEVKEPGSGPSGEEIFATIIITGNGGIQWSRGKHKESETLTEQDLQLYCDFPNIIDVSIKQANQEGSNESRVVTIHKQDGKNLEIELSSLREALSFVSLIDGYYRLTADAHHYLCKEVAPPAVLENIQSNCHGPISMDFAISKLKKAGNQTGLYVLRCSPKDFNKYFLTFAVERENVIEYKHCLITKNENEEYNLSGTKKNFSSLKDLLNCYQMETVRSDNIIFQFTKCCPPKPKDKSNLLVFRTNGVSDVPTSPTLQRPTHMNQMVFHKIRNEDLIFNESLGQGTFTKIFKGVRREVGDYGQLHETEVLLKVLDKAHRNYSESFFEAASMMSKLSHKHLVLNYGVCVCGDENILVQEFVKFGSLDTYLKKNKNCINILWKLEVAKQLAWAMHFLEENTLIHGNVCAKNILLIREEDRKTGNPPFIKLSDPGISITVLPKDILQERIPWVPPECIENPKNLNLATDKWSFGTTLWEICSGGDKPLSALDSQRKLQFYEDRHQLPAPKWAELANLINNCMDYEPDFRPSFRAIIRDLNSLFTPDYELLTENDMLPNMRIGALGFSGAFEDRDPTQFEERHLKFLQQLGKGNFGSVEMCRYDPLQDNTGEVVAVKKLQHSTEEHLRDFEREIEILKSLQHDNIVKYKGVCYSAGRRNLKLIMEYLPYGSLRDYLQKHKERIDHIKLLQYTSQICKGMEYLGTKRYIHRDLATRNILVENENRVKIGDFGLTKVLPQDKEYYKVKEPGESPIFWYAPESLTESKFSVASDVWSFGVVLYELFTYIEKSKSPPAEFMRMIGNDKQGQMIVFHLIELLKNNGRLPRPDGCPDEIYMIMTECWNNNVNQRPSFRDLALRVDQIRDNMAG
How it was run: as §1

[2] = in vivo; cited from earlier work; remark: listed apart in the source
[3] = NOD mouse model of type I diabetes; cited from earlier work

| Structure (SMILES) | efficacy in an animal model of organ transplantation [1] | pIC50 (JAK3) | pIC50 (JAK2) | severity of GVHD [2] | spontaneous autoimmune diabetes development [3] |
| --- | --- | --- | --- | --- | --- |
| C[C@@H]1CCN(C(=O)CC#N)C[C@@H]1N(C)c1ncnc2[nH]ccc12 [CP-690,550] | show efficacy |  |  |  |  |
| COCCCN1CCCC(Cn2ncc3cnc(Nc4cnn(C)c4)nc32)C1 (stereo not shown) [Example 58, 1-((1-(3-methoxypropyl)piperidin-3-yl)methyl)-N-(1-methyl-1H-pyrazol-4-yl)-1H-pyrazolo[3,4-d]pyrimidin-6-amine] |  | 6.00 to 7.00 | < 5.00 |  |  |
| CS(=O)(=O)CCC(=O)N1CCCC(Cn2ncc3cnc(Nc4cnn(CC(F)F)c4)nc32)C1 (stereo not shown) [Example 59, 1-(3-((6-((1-(2,2-difluoroethyl)-1H-pyrazol-4-yl)amino)-1H-pyrazolo[3,4-d]pyrimidin-1-yl)methyl)piperidin-1-yl)-3-(methylsulfonyl)propan-1-one] |  | 6.00 to 7.00 | < 5.00 |  |  |
| N#CCN1CCCC(Cn2ncc3cnc(Nc4cnn(CC(F)F)c4)nc32)C1 (stereo not shown) [Example 60, 2-(3-((6-((1-(2,2-difluoroethyl)-1H-pyrazol-4-yl)amino)-1H-pyrazolo[3,4-d]pyrimidin-1-yl)methyl)piperidin-1-yl)acetonitrile] |  | 6.00 to 7.00 | 5.00 to 6.00 |  |  |
| CC(C)S(=O)(=O)N1CCCC(Cn2ncc3cnc(Nc4cnn(CC(F)F)c4)nc32)C1 (stereo not shown) [Example 61, N-(1-(2,2-difluoroethyl)-1H-pyrazol-4-yl)-1-((1-(isopropylsulfonyl)piperidin-3-yl)methyl)-1H-pyrazolo[3,4-d]pyrimidin-6-amine] |  | > 7.00 | 5.00 to 6.00 |  |  |
| Cn1cc(Nc2ncc3cnn(CC4CCCN(CCCS(C)(=O)=O)C4)c3n2)cn1 (stereo not shown) [Example 62, N-(1-methyl-1H-pyrazol-4-yl)-1-((1-(3-(methylsulfonyl)propyl)piperidin-3-yl)methyl)-1H-pyrazolo[3,4-d]pyrimidin-6-amine] |  | > 7.00 | 5.00 to 6.00 |  |  |
| CC(C)NC(=O)CN1CCCC(Cn2ncc3cnc(Nc4cnn(C)c4)nc32)C1 (stereo not shown) [Example 63, N-isopropyl-2-(3-((6-((1-methyl-1H-pyrazol-4-yl)amino)-1H-pyrazolo[3,4-d]pyrimidin-1-yl)methyl)piperidin-1-yl)acetamide] |  | 6.00 to 7.00 | < 5.00 |  |  |
| CNC(=O)CN1CCCC(Cn2ncc3cnc(Nc4cnn(C)c4)nc32)C1 (stereo not shown) [Example 64, N-methyl-2-(3-((6-((1-methyl-1H-pyrazol-4-yl)amino)-1H-pyrazolo[3,4-d]pyrimidin-1-yl)methyl)piperidin-1-yl)acetamide] |  | > 7.00 | 5.00 to 6.00 |  |  |
| CN(C)C(=O)N1CCCC(Cn2ncc3cnc(Nc4cnn(C)c4)nc32)C1 (stereo not shown) [Example 65, N,N-dimethyl-3-((6-((1-methyl-1H-pyrazol-4-yl)amino)-1H-pyrazolo[3,4-d]pyrimidin-1-yl)methyl)piperidine-1-carboxamide] |  | > 7.00 | 5.00 to 6.00 |  |  |
| Cn1cc(Nc2ncc3cnn(CC4CCCN(CCO)C4)c3n2)cn1 (stereo not shown) [Example 66, 2-(3-((6-((1-methyl-1H-pyrazol-4-yl)amino)-1H-pyrazolo[3,4-d]pyrimidin-1-yl)methyl)piperidin-1-yl)ethanol] |  | > 7.00 | 5.00 to 6.00 |  |  |
| Cn1cc(Nc2ncc3cnn(CC4CCCN(CC(F)F)C4)c3n2)cn1 (stereo not shown) [Example 67, 1-((1-(2,2-difluoroethyl)piperidin-3-yl)methyl)-N-(1-methyl-1H-pyrazol-4-yl)-1H-pyrazolo[3,4-d]pyrimidin-6-amine] |  | > 7.00 | 5.00 to 6.00 |  |  |
| CC(C)NC(=O)CN1CCC(Cn2ncc3cnc(Nc4cnn(C)c4)nc32)C1 (stereo not shown) [Example 68, N-isopropyl-2-(3-((6-((1-methyl-1H-pyrazol-4-yl)amino)-1H-pyrazolo[3,4-d]pyrimidin-1-yl)methyl)pyrrolidin-1-yl)acetamide] |  | 6.00 to 7.00 | < 5.00 |  |  |
| COc1cc2ncnc(Nc3ccc(O)cc3)c2cc1OC [JANEX-1] |  |  |  | attenuate the severity of GVHD | prevent spontaneous autoimmune diabetes development |
